Values of other authors in patent US20240327780A1 (priority 2023, published 2024).
Where a name gives a salt, the structure may show the parent alone.

Tested on: SARS-CoV-2 nsp14

Structure (SMILES) | inhibition of nsp14 in fluorescence-based screen
Fc1ccc(C(c2ccc(F)cc2)N2CCN(C/C=C/c3ccccc3)CC2)cc1 [flunarizine dihydrochloride] | selective inhibitors
Clc1ccc2nsnc2c1NC1=NCCN1 [tizanidine hydrochloride] | selective inhibitors
